From paper PMC12454639, “Direct disassembly of α-syn preformed fibrils into α-syn monomers by an all-D-peptide” (NPJ Parkinson's Disease, 2025)
Entries after “also recorded” stand apart in the source; their conditions may differ. Square brackets hold non-standard residues; d marks the D form. Peptide text beside a SMILES is read from it.

How the values were obtained:
α-syn monomer = experiment: De novo ThT aggregation assay (10 µM α-syn); type: biochemical; conditions: 37 °C, n = 5
Method: The Thioflavin T (ThT) assay is commonly used for the visualization of α-syn fibrilization, since the dye ThT is able to bind to the amyloidogenic cross-β-sheet proportions of fibril structures. Recombinant α-syn was thawed on ice and centrifuged for 30 min at 21,000 × g and 4 °C. The concentration of the supernatant was determined as described previously. Lyophilized D-peptides were thawed at RT for 1 h and dissolved in 500 µl PBS pH 7.4. After centrifugation for 30 min at 21,000 × g the supernatant concentration was determined by UV–vis using the corresponding extinction coefficient at A280. […] ThT fluorescence was monitored with bottom optics at λex = 448 nm and λem = 482 nm in a fluorescence plate reader with orbital averaging on 3 mm (Clariostar or Polarstar Optima, BMG labtech, GE). […]
ThT assay was used for different purposes. […] Lag-time and t½ were calculated as described previously. […]
(§1) ThT fluorescence progression was measured in a 96-well non-binding half-area plate (Corning, USA) with a FLUOStar platereader (BMG labtech, GE) at λex = 448 nm and λem = 482 nm. […] 10 µM α-syn monomer was incubated with 5, 10 and 20 µM peptide at 37 °C, adding one borosilicate glass bead per well (d = 3.0 mm, Hilgenberg, GE) with continuous orbital shaking at 300 rpm in between reads. […]
For each fit, x ½, lag-time and steady state response was determined in order to calculate their mean value for each condition. […]

small α-syn PFF seeds = experiment: Seeded ThT aggregation assay; type: biochemical; conditions: then 20 µM α-syn monomer, n = 3
Method: The Thioflavin T (ThT) assay is commonly used for the visualization of α-syn fibrilization, since the dye ThT is able to bind to the amyloidogenic cross-β-sheet proportions of fibril structures. Recombinant α-syn was thawed on ice and centrifuged for 30 min at 21,000 × g and 4 °C. The concentration of the supernatant was determined as described previously. Lyophilized D-peptides were thawed at RT for 1 h and dissolved in 500 µl PBS pH 7.4. After centrifugation for 30 min at 21,000 × g the supernatant concentration was determined by UV–vis using the corresponding extinction coefficient at A280. All ThT assay experiments were performed at 37 °C with 15 µM ThT and 0.05% sodium azide (w/v) in PBS pH 7.4 if not otherwise stated. ThT fluorescence was monitored with bottom optics at λex = 448 nm and λem = 482 nm in a fluorescence plate reader with orbital averaging on 3 mm (Clariostar or Polarstar Optima, BMG labtech, GE). Prior to measurement start, 120 µl sample solution was transferred to a non-binding 96-half area well plate with transparent flat bottom (Corning, USA). One borosilicate glass bead (d = 3.0 mm, Hilgenberg, GE) was added to each well for all de novo aggregation assays. For seeded aggregation assays, no bead was used, and samples were incubated under quiescent conditions. Wells that surrounded the sample wells were filled with the same volume of buffer to improve heat distribution. Experiments were performed with five replicates (n = 5) if not otherwise stated.
ThT assay was used for different purposes. […] Lag-time and t½ were calculated as described previously. […] Measurements were taken every 5 min (n = 3).
small α-syn PFF seeds were prepared as described previously with some modifications. First, insoluble PFF were produced by incubation of 300 µM recombinant α-syn in a LoBind reaction tube (Eppendorf GmbH, GE) with one borosilicate glass bead (d = 3.0 mm; Hilgenberg, DE) in 20 mM NaPi, pH 7.0, 150 mM NaCl, 0.05% (w/v) sodium azide for one week at 37 °C. The insoluble PFF were harvested by ultracentrifugation at 100,000 × g for 30 min at 4 °C, and the pellet was washed several times with 20 mM NaPi, pH 7.0, 150 mM NaCl. The monomer equivalent concentration was determined by measuring the α-syn concentration in the supernatant after the first centrifugation and subtracting it from the start concentration for fibrilization. […]
as §1

[1] = target: T1, α-syn monomer (full-length) (Homo sapiens, UniProt P37840); experiment: SPR single-cycle kinetics, peptide immobilized, α-syn as analyte; type: binding; conditions: for deviation from 1:1 model (additional binding mode): suggested from deviation of fits for later injections
T1 construct: made in house; host or cells: E. coli BL21(DE3), co-expressed with pNatB (N-terminal acetylation enzyme from Schizosaccharomyces pombe)
Method: The experiment was performed as an individual measurement. […] The non-referenced signal of the active and referenced surface is shown in Supplementary Fig. 7. […] Full-length α-syn was injected for 100 s at 30 µl/min in PBS 7.4 in a serial dilution ranging from 15 to 250 nM, followed by a dissociation time of 60 min. Y-axis scaling was adjusted to (A).
Measurements were performed using an 8K Biacore device (Cytiva, USA). Interactions were measured using single-cycle kinetics experiments. For all assays, the peptide compounds were immobilized as ligand on the sensor surface and recombinant α-syn was injected as analyte in the flow. […] Surface quenching was performed using 1 M ethanolamine, pH 8.3. The kinetic experiments were performed using a flow rate of 30 µl/min in PBS pH 7.4 if not otherwise stated. The surface was regenerated in between cycles using 30 s injections of 2 M Gua-HCl at 30 µl/min. Data evaluation was performed using Biacore Insight Evaluation Software v3.0 (Cytiva, USA).

## CC[C@@H](C)[C@@H](NC(=O)[C@@H](Cc1c[nH]cn1)NC(=O)[C@@H](CCC(=O)O)NC(=O)[C@@H](CCC(N)=O)NC(=O)[C@@H](Cc1c[nH]c2ccccc12)NC(=O)[C@@H](Cc1ccc(O)cc1)NC(=O)[C@H](NC(=O)[C@@H](CCC(=O)O)NC(=O)[C@@H](Cc1c[nH]cn1)NC(=O)[C@H](NC(=O)[C@H]1CCCN1C(=O)[C@@H](CCSC)NC(=O)[C@H](N)CCCCN)[C@H](C)O)[C@H](C)O)C(=O)N[C@H](Cc1c[nH]c2ccccc12)C(=O)N[C@H](Cc1c[nH]cn1)C(=O)N[C@H](C)C(N)=O [SVD-1] (H-[dK][dM][dP][dT][dH][dE][dT][dY][dW][dQ][dE][dH][dI][dW][dH][dA]-NH2)
α-syn monomer; 10 µM α-syn, 5, 10 and 20 µM peptide, glass bead, continuous shaking 300 rpm
  inhibition of de novo aggregation: concentration-dependent delay of aggregation onset as well as by a reduction of steady state levels; also recorded: inhibits primary nucleation of α-syn
Small α-syn PFF seeds; 50 nM small α-syn PFF pre-incubated 20 h with peptide, 37 °C quiescent
  inhibition of seeded aggregation: significantly decelerate amyloid growth in the seeded environment; also recorded: inhibits elongation and secondary nucleation of α-syn
[1]
  deviation from 1:1 model (additional binding mode): additional low-affinity binding mode in the higher nM range

## CC[C@@H](C)[C@@H](NC(=O)[C@@H](Cc1c[nH]cn1)NC(=O)[C@@H](CCC(=O)O)NC(=O)[C@@H](CCC(N)=O)NC(=O)[C@@H](Cc1c[nH]c2ccccc12)NC(=O)[C@@H](Cc1ccc(O)cc1)NC(=O)[C@H](NC(=O)[C@@H](CCC(=O)O)NC(=O)[C@@H](Cc1c[nH]cn1)NC(=O)[C@H](NC(=O)[C@H]1CCCN1C(=O)[C@@H](CC(C)C)NC(=O)[C@H](N)CCCNC(=N)N)[C@H](C)O)[C@H](C)O)C(=O)N[C@H](Cc1c[nH]c2ccccc12)C(=O)N[C@H](Cc1c[nH]cn1)C(=O)N[C@H](C)C(=O)N[C@H](CCCNC(=N)N)C(=O)N[C@H](CCCNC(=N)N)C(=O)N[C@H](CCCNC(=N)N)C(=O)N[C@H](CCCNC(=N)N)C(=O)N[C@H](CCCNC(=N)N)C(N)=O [SVD-1a] (H-[dR][dL][dP][dT][dH][dE][dT][dY][dW][dQ][dE][dH][dI][dW][dH][dA][dR][dR][dR][dR][dR]-NH2)
α-syn monomer; 10 µM α-syn, 20 µM peptide
  inhibition of de novo aggregation at twofold molar excess: completely inhibited
Small α-syn PFF seeds; 5 µM peptide, 50 nM PFF pre-incubated 20 h
  effect on elongation rate: a reduction of the elongation rate was observed
Small α-syn PFF seeds; 20 µM or higher peptide (20 µM for SVD-1_scrambled+5r), 50 nM PFF pre-incubated 20 h
  inhibition of seeding: complete inhibition of the seeding capacity
[1]
  Kd: 100 pM
  deviation from 1:1 model (additional binding mode): additional low-affinity binding mode in the higher nM range
[1]; 1:1 Langmuir-based model, immobilized peptide, α-syn analyte, PBS pH 7.4, dissociation 60 or 30 min, individual measurement
  koff: 3.13e-05 s⁻¹
[1]; 1:1 Langmuir-based model, immobilized peptide, α-syn analyte, PBS pH 7.4, individual measurement
  kon: 313000 M⁻¹ s⁻¹
[1]; comparison of SVD-1a and SVD-1a_scr.+5r
  sequence specificity of binding: sequence-specific
